How the values were obtained:
[1] = Plasma clearance in Sprague-Dawley rat at 1 mg/kg, iv measured up to 8 hrs by LC-MS/MS analysis; assay type: ADME, organism-based
[2] = Blood clearance in FVB mouse at 1 mg/kg, iv measured upto 6 hrs by LC-MS/MS analysis; assay type: ADME, organism-based; settings: whole blood
[3] = Lipophilicity, log D of compound at pH 7.4; assay type: physicochemical; settings: buffer
[4] = Clearance in human hepatocytes at 1 uM measured up to 3 hrs by LC-MS/MS analysis; assay type: ADME, cell-based, Hepatocyte
[5] = Volume of distribution at steady state in Sprague-Dawley rat at 1 mg/kg, iv measured upto 8 hrs by LC-MS/MS analysis; assay type: ADME, organism-based; settings: in vivo, read-out: Vdss
[6] = Volume of distribution at steady state in FVB mouse at 1 mg/kg, iv measured upto 6 hrs by LC-MS/MS analysis; assay type: ADME, organism-based; settings: in vivo, read-out: Vdss
[7] = Dissociation constant, acidic pKa of compound by spectrophotometric method; assay type: physicochemical
[8] = Clearance in Sprague-Dawley rat hepatocytes at 1 uM measured up to 3 hrs by LC-MS/MS analysis; assay type: ADME, cell-based, Hepatocyte
[9] = Ratio of drug uptake in Sprague-Dawley rat liver to plasma at 5 mg/kg, po measured up to 8 hrs by LC-MS/MS analysis; assay type: ADME, organism-based
[10] = Plasma clearance in Beagle dog at 0.5 mg/kg, iv administered as single dose measured upto 24 hrs by LC-MS/MS analysis; assay type: ADME, organism-based, Canis lupus familiaris
[11] = Clearance in Beagle dog at 0.5 mg/kg, iv administered as single dose measured upto 24 hrs by LC-MS/MS analysis relative to hepatic blood flow; assay type: ADME, organism-based, Canis lupus familiaris; settings: in vivo
[12] = Half life in Sprague-Dawley rat at 1 mg/kg, iv measured upto 8 hrs by LC-MS/MS analysis; assay type: ADME, organism-based; settings: in vivo
[13] = Volume of distribution at steady state in cynomolgus monkey at 0.5 mg/kg, iv administered as single dose measured upto 24 hrs by LC-MS/MS analysis; assay type: ADME, organism-based, Macaca fascicularis; settings: in vivo, read-out: Vdss
[14] = Volume of distribution at steady state in Beagle dog at 0.5 mg/kg, iv administered as single dose measured upto 24 hrs by LC-MS/MS analysis; assay type: ADME, organism-based, Canis lupus familiaris; settings: in vivo, read-out: Vdss
[15] = Plasma clearance in cynomolgus monkey at 0.5 mg/kg, iv administered as single dose measured upto 24 hrs by LC-MS/MS analysis; assay type: ADME, organism-based, Macaca fascicularis
[16] = Half life in Beagle dog at 0.5 mg/kg, iv administered as single dose measured upto 24 hrs by LC-MS/MS analysis; assay type: ADME, organism-based, Canis lupus familiaris; settings: in vivo
[17] = Clearance in Sprague-Dawley rat at 1 mg/kg, iv measured upto 8 hrs by LC-MS/MS analysis relative to hepatic blood flow; assay type: ADME, organism-based; settings: in vivo
[18] = Half life in cynomolgus monkey at 0.5 mg/kg, iv administered as single dose measured upto 24 hrs by LC-MS/MS analysis; assay type: ADME, organism-based, Macaca fascicularis; settings: in vivo
[19] = Oral bioavailability in Sprague-Dawley rat at 5 mg/kg measured upto 8 hrs by LC-MS/MS analysis; assay type: ADME, organism-based; settings: in vivo
[20] = Oral bioavailability in Beagle dog at 0.5 mg/kg administered as single dose measured upto 24 hrs by LC-MS/MS analysis; assay type: ADME, organism-based, Canis lupus familiaris; settings: in vivo
[21] = Clearance in cynomolgus monkey at 0.5 mg/kg, iv administered as single dose measured upto 24 hrs by LC-MS/MS analysis relative to hepatic blood flow; assay type: ADME, organism-based, Macaca fascicularis; settings: in vivo
[22] = Oral bioavailability in cynomolgus monkey at 0.5 mg/kg administered as single dose measured upto 24 hrs by LC-MS/MS analysis; assay type: ADME, organism-based, Macaca fascicularis; settings: in vivo
[23] = Drug metabolism in human hepatocytes assessed as oxidation of arene ring at 1 uM measured up to 3 hrs by LC-MS/MS analysis; assay type: ADME, cell-based, Hepatocyte
[24] = Drug excretion in Sprague-Dawley rat bile at 1 mg/kg, iv or 5 mg/kg, po measured up to 8 hrs by LC-MS/MS analysis; assay type: ADME, organism-based; settings: in vivo
[25] = Drug level in plasma of FVB transgenic mouse model of inherited erythromelalgia xenografted with human HEK293 cells harboring I848T mutation at 15 mg/kg, po measured after 70 mins by LC-MS/MS analysis; assay type: ADME, organism-based
[26] = Drug level in plasma of FVB transgenic mouse model of inherited erythromelalgia xenografted with human HEK293 cells harboring I848T mutation at 50 mg/kg, po measured after 70 mins by LC-MS/MS analysis; assay type: ADME, organism-based
[27] = Dissociation constant, basic pKa of compound; assay type: physicochemical

Row | Compound | clearance [1] | logD [3] | CLhep predicted at 1 µM [4] | CLhep predicted at 1 µM [8] | also measured
1 | O=S(=O)(Nc1ccncn1)c1cc2c(cc1F)[C@@H](N1CC[C@H](C(F)(F)F)C[C@@H]1c1ccc(F)cc1)CCO2 | 0.78 to 0.8 mL/min/kg | 3.2 | 7.7 mL/min/kg | 14 mL/min/kg | clearance [2]: 8.3 mL/min/kg; Vd [5]: 0.7 L/kg; Vd [6]: 0.9 L/kg; pKa [7]: 5.81; Kp at 8 h [9]: 4
2 | O=S(=O)(Nc1ccncn1)c1cc2c(cc1F)[C@@H](N1CC[C@H](C(F)(F)F)C[C@@H]1c1ccncc1)CCO2 | 82 mL/min/kg | 1.2 | 13 mL/min/kg | 13 mL/min/kg | –
3 | O=S(=O)(Nc1ncns1)c1ccc2c(c1)OCC[C@@H]2N1CC[C@H](C(F)(F)F)C[C@@H]1c1ccccc1 | – | 3.5 | 11 mL/min/kg | 32 mL/min/kg | –
4 | Cn1nccc1[C@H]1C[C@@H](C(F)(F)F)CCN1[C@H]1CCOc2cc(S(=O)(=O)Nc3ccncn3)c(F)cc21 | 42 mL/min/kg | 0.9 | 14 mL/min/kg | 14 mL/min/kg | –
5 | O=S(=O)(Nc1cccnn1)c1cc2c(cc1F)[C@@H](N1CC[C@H](C(F)(F)F)C[C@@H]1c1ccc(F)cc1)CCO2 | 0.71 mL/min/kg | 4.3 | < 6.2 mL/min/kg | < 10 mL/min/kg | pKa [7]: 6.59
6 | O=S(=O)(Nc1ncns1)c1cc(F)c(CN2CC[C@@H](C(F)(F)F)C[C@H]2c2ccccc2)cc1F | – | 2.7 | – | – | –
7 | O=S(=O)(Nc1ccc(F)cn1)c1cc2c(cc1F)[C@@H](N1CC[C@H](C(F)(F)F)C[C@@H]1c1ccc(F)cc1)CCO2 | 4.9 mL/min/kg | 5 | < 6.2 mL/min/kg | < 10 mL/min/kg | pKa [7]: 8.22
8 | O=S(=O)(Nc1ccncn1)c1cc2c(cc1F)[C@@H](N1CC[C@H](C(F)(F)F)C[C@@H]1c1cc[nH]n1)CCO2 | 93 mL/min/kg | 1.3 | 9.1 mL/min/kg | 15 mL/min/kg | –
9 | O=S(=O)(Nc1ccncn1)c1cc2c(cc1F)[C@@H](N1CC[C@H](C(F)(F)F)C[C@@H]1c1cnccn1)CCO2 | 42 mL/min/kg | 0.5 | 9 mL/min/kg | 25 mL/min/kg | –
10 | O=S(=O)(Nc1ccncn1)c1cc2c(cc1F)[C@@H](N1CC[C@H](C(F)(F)F)C[C@@H]1c1ccccn1)CCO2 | 14 to 15 mL/min/kg | 1.4 | < 6.2 mL/min/kg | 17 mL/min/kg | clearance [10]: 2.4 mL/min/kg; clearance [11]: 8 to 44%; Vd [5]: 1.2 L/kg; half-life [12]: 1.7 h; Vd [13]: 0.66 L/kg; Vd [14]: 0.74 L/kg; clearance [15]: 19 mL/min/kg; half-life [16]: 4.3 h; clearance [17]: 8 to 44%; half-life [18]: 2.1 h; bioavailability [19]: 73%; bioavailability [20]: 32%; clearance [21]: 8 to 44%; bioavailability [22]: 18%
11 | Cn1ccc([C@H]2C[C@@H](C(F)(F)F)CCN2[C@H]2CCOc3cc(S(=O)(=O)Nc4ccncn4)c(F)cc32)n1 | 46 mL/min/kg | 1.3 | 8.2 mL/min/kg | 41 mL/min/kg | –
12 | O=S(=O)(Nc1ccncn1)c1cc2c(cc1F)[C@@H](N1CC[C@H](C(F)(F)F)C[C@@H]1c1ccncn1)CCO2 | – | 0.6 | 7.8 mL/min/kg | 16 mL/min/kg | –
13 | O=S(=O)(Nc1ncns1)c1ccc2c(c1)OCC[C@@H]2N1CC[C@H](C(F)(F)F)C[C@@H]1c1ccc(F)cc1 | 62 mL/min/kg | 3.2 | 11 mL/min/kg | 17 mL/min/kg | Drug metabolism [23]: Metabolite_Notdetected; clearance [2]: 46 mL/min/kg; Vd [5]: 23 L/kg; Vd [6]: 4.8 L/kg; pKa [7]: 3.26; Kp at 8 h [9]: 202; Drug excretion [24]: Active
14 | O=S(=O)(Nc1ccncn1)c1cc2c(cc1F)[C@@H](N1CC[C@H](C(F)(F)F)C[C@@H]1c1cnco1)CCO2 | 62 mL/min/kg | 0.9 | 12 mL/min/kg | 12 mL/min/kg | –
15 | O=S(=O)(Nc1ncns1)c1cc(F)c(CN2CC[C@H](C(F)(F)F)C[C@@H]2c2ccccc2)cc1F | – | 2.7 | – | – | concentration at 70 min [25]: 33 µM; concentration at 70 min [26]: 58 µM; pKa [27]: 5.5
16 | O=S(=O)(Nc1ccncn1)c1cc2c(cc1F)[C@@H](N1CC[C@H](C(F)(F)F)C[C@@H]1c1cccnc1)CCO2 | 101 mL/min/kg | 1.3 | 15 mL/min/kg | 26 mL/min/kg | –
17 | O=S(=O)(Nc1ccncn1)c1cc2c(cc1F)[C@@H](N1CC[C@H](C(F)(F)F)C[C@@H]1c1cn[nH]c1)CCO2 | 161 mL/min/kg | 1.1 | 12 mL/min/kg | 18 mL/min/kg | –
18 | O=S(=O)(Nc1ncns1)c1cc(F)c(CN2CCCC[C@@H]2c2ccccc2)cc1F | – | 1.9 | – | – | –
19 | O=S(=O)(Nc1ccon1)c1cc2c(cc1F)[C@@H](N1CC[C@H](C(F)(F)F)C[C@@H]1c1ccc(F)cc1)CCO2 | 2.1 mL/min/kg | 2.8 | < 6.2 mL/min/kg | 13 mL/min/kg | pKa [7]: 4.49
20 | O=S(=O)(Nc1ccncn1)c1cc2c(cc1F)[C@@H](N1CC[C@H](C(F)(F)F)C[C@@H]1c1ccnnc1)CCO2 | – | 0.2 | < 6.2 mL/min/kg | < 10 mL/min/kg | –
21 | O=S(=O)(Nc1ncns1)c1cc(F)c(CN2CCCC[C@H]2c2ccccc2)cc1F | – | 1.9 | – | – | –

— ChEMBL document CHEMBL4385607, “Structure- and Ligand-Based Discovery of Chromane Arylsulfonamide Nav1.7 Inhibitors for the Treatment of Chronic Pain” (J Med Chem, 2019)
